The target in assay [1] is T1, Type-1 angiotensin II receptor (Homo sapiens, UniProt P30556).
T1 sequence (P30556 whole entry): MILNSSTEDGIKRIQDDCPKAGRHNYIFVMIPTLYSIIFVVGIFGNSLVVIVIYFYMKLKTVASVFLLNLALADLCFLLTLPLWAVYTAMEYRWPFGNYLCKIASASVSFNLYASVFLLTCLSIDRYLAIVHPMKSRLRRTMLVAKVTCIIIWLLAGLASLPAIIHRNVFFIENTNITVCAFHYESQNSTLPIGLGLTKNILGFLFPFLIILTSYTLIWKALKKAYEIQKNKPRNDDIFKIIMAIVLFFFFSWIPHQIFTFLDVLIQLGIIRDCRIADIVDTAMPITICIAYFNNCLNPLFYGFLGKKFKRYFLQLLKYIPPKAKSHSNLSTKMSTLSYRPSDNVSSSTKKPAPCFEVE
Briefly: Binding affinity for Angiotensin II receptor, type 1.

In assay [2] the target is T2, Type-2 angiotensin II receptor (Homo sapiens, UniProt P50052).
T2 sequence (P50052 whole entry): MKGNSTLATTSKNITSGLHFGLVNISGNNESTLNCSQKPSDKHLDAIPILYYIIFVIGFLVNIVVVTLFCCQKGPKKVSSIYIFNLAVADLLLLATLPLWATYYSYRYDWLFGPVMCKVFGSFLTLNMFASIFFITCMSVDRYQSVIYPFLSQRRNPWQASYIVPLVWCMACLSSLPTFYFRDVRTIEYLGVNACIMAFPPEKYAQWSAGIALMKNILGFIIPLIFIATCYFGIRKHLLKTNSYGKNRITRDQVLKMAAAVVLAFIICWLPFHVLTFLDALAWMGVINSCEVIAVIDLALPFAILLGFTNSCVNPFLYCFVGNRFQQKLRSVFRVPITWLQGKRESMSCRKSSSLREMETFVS
Briefly: Binding affinity for angiotensin II AT-2 receptor.

As for `CCCc1nc(CC)c(C(=O)OCc2ccc(C(=O)c3ccccc3)cc2)n1Cc1ccc(-c2ccccc2-c2nn[nH]n2)cc1`, the results for the 50% inhibitory concentration (IC50) in assay [1] and in assay [2] were 9 nM and 2000 nM, respectively.
In the same order, the values of `CCCc1nc(CC)c(C(=O)OCc2ccccc2NC(=O)c2ccccc2)n1Cc1ccc(-c2ccccc2S(=O)(=O)NC(=O)OCCC(C)C)cc1F` are 0.3 nM and 1 nM.
In the same order, the values of `CCCc1nc(CC)c(C(=O)OCCCCOc2ccccc2)n1Cc1ccc(-c2ccccc2S(=O)(=O)NC(=O)OCCC(C)C)cc1F` are 0.2 nM and 2 nM.
Taken in the same sequence, the figures for `CCCc1nc(CC)c(C(=O)OCCN(C(=O)OCCC(C)C)c2ccccc2)n1Cc1ccc(-c2ccccc2S(=O)(=O)NC(=O)OCCC(C)C)cc1F` were 0.2 nM and 4 nM.
With `CCCc1nc(CC)c(C(=O)OCc2ccccc2C(=O)c2ccccc2)n1Cc1ccc(-c2ccccc2S(=O)(=O)NC(=O)OC)cc1`, the IC50 in assay [1] is 0.6 nM; in assay [2] it was 10 nM.
Taken in the same sequence, the figures for `CCCc1nc(CC)c(C(=O)OCCN(C(=O)c2ccccc2)c2ccccc2)n1Cc1ccc(-c2ccccc2S(=O)(=O)NC(=O)OCCC(C)C)cc1F` were 0.1 nM and 2 nM.
In the same order, the values of `CCCc1nc(CC)c(C(=O)OCCC(=O)Nc2ccccc2)n1Cc1ccc(-c2ccccc2S(=O)(=O)NC(=O)OCCC(C)C)cc1F` are 0.1 nM and 3 nM.
Taken in the same sequence, the figures for `CCCCN(Cc1ccccc1)C(=O)c1ccc(COC(=O)c2c(CC)nc(CCC)n2Cc2ccc(-c3ccccc3-c3nn[nH]n3)cc2)cc1` were 8 nM and 200 nM.
Consider `CCCc1nc(CC)c(C(=O)OCc2cccc(C(=O)N(c3ccccc3)c3ccccc3)c2)n1Cc1ccc(-c2ccccc2-c2nn[nH]n2)cc1`, for which the IC50 turned out to be 30 nM in assay [1] and 300 nM in assay [2].
Taken in the same sequence, the figures for `CCCCN(CCCC)C(=O)CCCOC(=O)c1c(CC)nc(CCC)n1Cc1ccc(-c2ccccc2-c2nnn[nH]2)cc1` were 30 nM and 500 nM.
For the compound `CCCc1nc(CC)c(C(=O)NCCCOc2ccccc2)n1Cc1ccc(-c2ccccc2S(=O)(=O)NC(=O)OCCC(C)C)cc1F`, the figures for the IC50 in assay [1] and in assay [2] were 0.3 nM and 9 nM, respectively.
Regarding `CCCOC(=O)NS(=O)(=O)c1ccccc1-c1ccc(Cn2c(CCC)nc(CC)c2C(=O)OCc2ccccc2-c2cncnc2)c(F)c1`, the IC50 in assay [1] was 0.8 nM; in assay [2], 10 nM.
Taken in the same sequence, the figures for `CCCCN(Cc1ccccc1)C(=O)CCCOC(=O)c1c(CC)nc(CCC)n1Cc1ccc(-c2ccccc2-c2nn[nH]n2)cc1` were 10 nM and 300 nM.
Consider `CCCc1nc(CC)c(C(=O)OCc2ccccc2C(=O)c2ccccc2)n1Cc1ccc(-c2ccccc2S(=O)(=O)NC(=O)OCCC(C)C)cc1`, for which the figures for the IC50 in assay [1] and in assay [2] were 0.35 nM and 1.9 nM, respectively.
Taken in the same sequence, the figures for `CCCc1nc(CC)c(C(=O)OCc2ccc(-c3ccccc3)cc2)n1Cc1ccc(-c2ccccc2-c2nnn[nH]2)cc1` were 3 nM and 3000 nM.
Taken in the same sequence, the figures for `CCCc1nc(CC)c(C(=O)OCc2ccccc2-c2ccccc2)n1Cc1ccc(-c2ccccc2-c2nnn[nH]2)cc1` were 3 nM and 2000 nM.
On to `CCCOC(=O)NS(=O)(=O)c1ccccc1-c1ccc(Cn2c(CCC)nc(CC)c2C(=O)OCc2ccccc2-c2cccs2)c(F)c1`, for which the IC50 came out at 0.5 nM in assay [1] and 3 nM in assay [2].
As for `CCCCCOC(=O)NS(=O)(=O)c1ccccc1-c1ccc(Cn2c(CCC)nc(CC)c2C(=O)OCCC(=O)Nc2ccccc2)c(F)c1`, the concentration for half-maximal inhibition (IC50) in assay [1] is 0.1 nM; in assay [2] it was 1 nM.
Consider `CCCc1nc(CC)c(C(=O)NCc2ccccc2Sc2ccccc2)n1Cc1ccc(-c2ccccc2S(=O)(=O)NC(=O)OCCC(C)C)cc1F`, for which the IC50 in assay [1] amounted to 0.4 nM; in assay [2], 3 nM.
Taken in the same sequence, the figures for `CCCc1nc(CC)c(C(=O)OCc2ccccc2OCCC(C)C)n1Cc1ccc(-c2ccccc2S(=O)(=O)NC(=O)OCCC(C)C)cc1F` were 3 nM and 10 nM.
In the same order, the values of `CCCc1nc(CC)c(C(=O)OCCCS(=O)(=O)c2ccccc2)n1Cc1ccc(-c2ccccc2S(=O)(=O)NC(=O)OCCC(C)C)cc1F` are 0.2 nM and 2 nM.
In the same order, the values of `CCCc1nc(CC)c(C(=O)OCc2ccc(C(=O)N(c3ccccc3)c3ccccc3)cc2)n1Cc1ccc(-c2ccccc2-c2nnn[nH]2)cc1` are 20 nM and 200 nM.
Take `CCCCN(Cc1ccccc1)C(=O)C#CCOC(=O)c1c(CC)nc(CCC)n1Cc1ccc(-c2ccccc2-c2nnn[nH]2)cc1`: the IC50 in assay [1] is 10 nM; in assay [2], 400 nM.
Taken in the same sequence, the figures for `CCCc1nc(CC)c(C(=O)OCc2ccccc2C(=O)C(C)(C)C)n1Cc1ccc(-c2ccccc2S(=O)(=O)NC(=O)OCCC(C)C)cc1F` were 0.3 nM and 3 nM.
In the same order, the values of `CCCOC(=O)NS(=O)(=O)c1ccccc1-c1ccc(Cn2c(CCC)nc(CC)c2C(=O)OCc2cccc(C(=O)c3ccccc3)c2)c(F)c1` are 0.3 nM and 10 nM.
For `CCCc1nc(CC)c(C(=O)OCCC[S+]([O-])c2ccccc2)n1Cc1ccc(-c2ccccc2S(=O)(=O)NC(=O)OCCC(C)C)cc1F` (stereo not given), the 50% inhibitory concentration (IC50) in assay [1] is 0.2 nM; in assay [2], 1 nM.
In the same order, the values of `CCCc1nc(CC)c(C(=O)NCc2ccccc2[S+]([O-])c2ccccc2)n1Cc1ccc(-c2ccccc2S(=O)(=O)NC(=O)OCCC(C)C)cc1F` (stereo not given) are 0.6 nM and 5 nM.
In the same order, the values of `CCCc1nc(CC)c(C(=O)OCCCC(=O)Nc2ccccc2)n1Cc1ccc(-c2ccccc2S(=O)(=O)NC(=O)OCCC(C)C)cc1F` are 0.2 nM and 5 nM.
Taken in the same sequence, the figures for `CCCCOC(=O)NS(=O)(=O)c1ccccc1-c1ccc(Cn2c(CCC)nc(CC)c2C(=O)NCCCOc2ccccc2)c(F)c1` were 0.4 nM and 20 nM.
With `CCCc1nc(CC)c(C(=O)OCc2ccccc2C(=O)c2ccccc2)n1Cc1ccc(-c2ccccc2S(=O)(=O)NC(=O)OCCc2ccccc2)cc1`, the IC50 amounted to 0.74 nM in assay [1] and 2.1 nM in assay [2].
For `CCCc1nc(CC)c(C(=O)OCc2ccccc2C(=O)c2ccccc2)n1Cc1ccc(-c2ccccc2-c2nnn[nH]2)cc1`, the half-inhibitory concentration (IC50) in assay [1] came to 2 nM; in assay [2], 300 nM.
In the same order, the values of `CCCc1nc(CC)c(C(=O)OCc2ccccc2OC)n1Cc1ccc(-c2ccccc2S(=O)(=O)NC(=O)OCCC(C)C)cc1F` are 0.1 nM and 1 nM.
In the same order, the values of `CCCc1nc(CC)c(C(=O)OCc2ccccc2-c2ccccc2)n1Cc1ccc(-c2ccccc2S(=O)(=O)NC(=O)OCCC(C)C)cc1F` are 3 nM and 9 nM.
Taken in the same sequence, the figures for `CCCc1nc(CC)c(C(=O)OCCCN2C(=O)c3ccccc3C2=O)n1Cc1ccc(-c2ccccc2S(=O)(=O)NC(=O)OCCC(C)C)cc1F` were 0.1 nM and 3 nM.
As for `CCCCN(Cc1ccccc1)C(=O)CCCOC(=O)c1c(CC)nc(CCC)n1Cc1ccc(-c2ccccc2S(=O)(=O)NC(=O)OCCC(C)C)cc1F`, the values for the half-maximal inhibitory concentration (IC50) in assay [1] and in assay [2] were 0.2 nM and 5 nM, respectively.
In the same order, the values of `CCCc1nc(CC)c(C(=O)OCC(=O)c2ccccc2)n1Cc1ccc(-c2ccccc2S(=O)(=O)NC(=O)OCCC(C)C)cc1F` are 0.1 nM and 2 nM.
As to `CCCc1nc(CC)c(C(=O)OCc2ccccc2C(=O)c2ccccc2)n1Cc1ccc(-c2ccccc2S(=O)(=O)NC(=O)OCCc2ccccc2)cc1F`, the concentration for half-maximal inhibition (IC50) in assay [1] was 0.57 nM; in assay [2], 0.69 nM.
In the same order, the values of `CCCc1nc(CC)c(C(=O)OCc2cccc(C(=O)c3ccccc3)c2)n1Cc1ccc(-c2ccccc2S(=O)(=O)NC(=O)OCCC(C)C)cc1F` are 0.6 nM and 0.9 nM.
Taken in the same sequence, the figures for `CCCOC(=O)NS(=O)(=O)c1ccccc1-c1ccc(Cn2c(CCC)nc(CC)c2C(=O)OCc2ccccc2-c2ccsc2)c(F)c1` were 0.3 nM and 20 nM.
In the same order, the values of `CCCCOC(=O)NS(=O)(=O)c1ccccc1-c1ccc(Cn2c(CCC)nc(CC)c2C(=O)OCc2ccccc2Oc2ccccc2)c(F)c1` are 0.6 nM and 3 nM.
As to `CCCc1nc(CC)c(C(=O)OCc2cccc(C(=O)c3ccccc3)c2)n1Cc1ccc(-c2ccccc2-c2nn[nH]n2)cc1`, the IC50 in assay [1] amounted to 9 nM; in assay [2], 1000 nM.
For the compound `CCCc1nc(CC)c(C(=O)OCc2ccccc2C(=O)c2ccccc2)n1Cc1ccc(-c2ccccc2S(=O)(=O)NC(=O)OCC(C)C)cc1F`, the 50% inhibitory concentration (IC50) was 0.5 nM in assay [1] and 1 nM in assay [2].
For the compound `CCCc1nc(CC)c(C(=O)OCC#CC(=O)N(c2ccccc2)c2ccccc2)n1Cc1ccc(-c2ccccc2-c2nn[nH]n2)cc1`, the figures for the IC50 in assay [1] and in assay [2] were 40 nM and 600 nM, respectively.
In the same order, the values of `CCCc1nc(CC)c(C(=O)OCc2ccccc2-c2ccsc2)n1Cc1ccc(-c2ccccc2S(=O)(=O)NC(=O)OCCC(C)C)cc1F` are 0.6 nM and 20 nM.
Turning to `CCCc1nc(CC)c(C(=O)OC(C(=O)c2ccccc2)c2ccccc2)n1Cc1ccc(-c2ccccc2S(=O)(=O)NC(=O)OCCC(C)C)cc1F` (stereo not given), the IC50 is 0.8 nM in assay [1] and 3 nM in assay [2].

One may read the IC50 as the concentration that gives 50% inhibition. A higher IC50 goes with weaker potency in that assay.

(Values after ChEMBL document CHEMBL1150518, “Balanced angiotensin II receptor antagonists. III. The effects of substitution at the imidazole 5-position” (Bioorg Med Chem Lett, 1994).)
